Our source for the Kd values is paper PMC9865853, “Structural Insights Uncover the Specific Phosphoinositide Recognition by the PH1 Domain of Arap3” (International Journal of Molecular Sciences, 2023).

The structures appear in SMILES notation.

The target of this assay is T1, Arap3-PH1 (Homo sapiens, UniProt Q8WWN8).
T1 construct: first PH domain, residues 284-385, C-terminal 6xHis tag (pET22b), expressed in E. coli BL21(DE3)
T1 sequence (Q8WWN8 284-385): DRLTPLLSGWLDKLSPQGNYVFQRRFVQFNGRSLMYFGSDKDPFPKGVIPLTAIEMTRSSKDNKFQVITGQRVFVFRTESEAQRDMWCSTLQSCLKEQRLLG
Put plainly: SPR (Biacore T200, CM5, protein immobilised), one-site fit. The class given is binding.

As usually defined, the Kd is the concentration at which binding is half-saturated. Higher therefore signals lower affinity. `CCCC(=O)OC[C@H](COP(=O)(O)O[C@H]1[C@H](O)[C@@H](OP(=O)(O)O)[C@H](OP(=O)(O)O)[C@@H](OP(=O)(O)O)[C@H]1O)OC(=O)CCC` [diC4-PI(3,4,5)P3]: the dissociation constant (Kd) is around 11.4 µM.

`CCCC(=O)OC[C@H](COP(=O)(O)O[C@@H]1[C@H](O)[C@H](O)[C@@H](OP(=O)(O)O)[C@H](OP(=O)(O)O)[C@H]1O)OC(=O)CCC` [diC4-PI(4,5)P2]: the Kd is around 61.7 µM.
